# US20080207667A1 (priority 2007, published 2008)
# Legend:
# [1] = tested on: subject suffering from a respiratory disorder (former smoker); experiment: Spirometry pre and post treatment with nebulized nalbuphine (Example 1); assay type: in vivo, human; conditions: for FEF (25–75%) % of Prediction / FEF (25–75%) (L/S) Actual / FEV1 % of Prediction / FEV1 (L) Actual / FEV1/FVC % of Prediction / FEV1/FVC (%) Actual / FVC % of Prediction / FVC (L) Actual / PEF % of Prediction / PEF (L/S) Actual / FEF (25–75%) % Change / FEV1 % Change / FEV1/FVC % Change / FVC % Change / PEF % Change: post nebulized nalbuphine
# Source text: This example illustrates the use of nalbuphine to treat a subject suffering from a respiratory disorder. The subject was a former smoker. Spirometry measurements were taken pre and post treatment with nebulized nalbuphine.
# [2] = tested on: asthmatic; experiment: Spirometry pre and post treatment with nebulized nalbuphine (Example 2); assay type: in vivo, human
# Method: In this example, an asthmatic taking advair diskus for treatment of asthma was treated with nalbuphine according to the present method. Spirometry measurements were taken pre and post treatment with nebulized nalbuphine.
# [3] = tested on: smoker; experiment: Spirometry pre and post treatment with nebulized nalbuphine (Example 3); assay type: in vivo, human
# Source text: Spirometry measurements were taken pre and post treatment with nebulized nalbuphine.
# [4] = nalbuphine and its salts; cited from earlier work
# [5] = Treatment #1, vs pre-nalbuphine
# [6] = Treatment #1, vs pre-nalbuphine, listed as nalbuphine
# [7] = Treatment #2, vs pre-nalbuphine
# [8] = Treatment #3, vs pre-nalbuphine
# [9] = asthmatic taking advair diskus, post nebulized nalbuphine
# [10] = post nebulized nalbuphine vs pre-nalbuphine
# [11] = smoker treated with combivent and spiriva, post nebulized nalbuphine
compound,measurement,setting,value
"Oc1ccc2c3c1O[C@H]1[C@@H](O)CC[C@@]4(O)[C@@H](C2)N(CC2CCC2)CC[C@]314 [Nalbuphine, nalbuphine]",FEF (25–75%) % of Prediction,[1]; Treatment #1,130%
same,FEF (25–75%) (L/S) Actual,[1]; Treatment #1,5.043 L/S
same,FEV1 % of Prediction,[1]; Treatment #1,139%
same,FEV1 (L) Actual,[1]; Treatment #1,4.223 L
same,FEV1/FVC % of Prediction,[1]; Treatment #1,106%
same,FEV1/FVC (%) Actual,[1]; Treatment #1,84%
same,FVC % of Prediction,[1]; Treatment #1,133%
same,FVC (L) Actual,[1]; Treatment #1,5.035 L
same,PEF % of Prediction,[1]; Treatment #1,93%
same,PEF (L/S) Actual,[1]; Treatment #1,5.98 L/S
same,FEF (25–75%) % Change,[1]; [5],37.50%
same,FEV1 % Change,[1]; [5],46%
same,FEV1/FVC % Change,[1]; [5],2%
same,FVC % Change,[1]; [5],44.0%
same,PEF % Change,[1]; [5],−6.4%
same,FEV1 % Change,[1]; [6],forty six
same,FVC % Change,[1]; [6],forty-four
same,FEF (25–75%) % of Prediction,[1]; Treatment #2,137%
same,FEF (25–75%) (L/S) Actual,[1]; Treatment #2,5.327 L/S
same,FEV1 % of Prediction,[1]; Treatment #2,134%
same,FEV1 (L) Actual,[1]; Treatment #2,4.259 L
same,FEV1/FVC % of Prediction,[1]; Treatment #2,107%
same,FEV1/FVC (%) Actual,[1]; Treatment #2,84%
same,FVC % of Prediction,[1]; Treatment #2,127%
same,FVC (L) Actual,[1]; Treatment #2,4.827 L
same,PEF % of Prediction,[1]; Treatment #2,113%
same,PEF (L/S) Actual,[1]; Treatment #2,7.297 L/S
same,FEF (25–75%) % Change,[1]; [7],45%
same,FEV1 % Change,[1]; [7],40%
same,FEV1/FVC % Change,[1]; [7],2%
same,FVC % Change,[1]; [7],38%
same,PEF % Change,[1]; [7],14%
same,FEF (25–75%) % of Prediction,[1]; Treatment #3,129%
same,FEF (25–75%) (L/S) Actual,[1]; Treatment #3,4.998 L/S
same,FEV1 % of Prediction,[1]; Treatment #3,136%
same,FEV1 (L) Actual,[1]; Treatment #3,4.11 L
same,FEV1/FVC % of Prediction,[1]; Treatment #3,110%
same,FEV1/FVC (%) Actual,[1]; Treatment #3,87%
same,FVC % of Prediction,[1]; Treatment #3,125%
same,FVC (L) Actual,[1]; Treatment #3,4.733 L
same,PEF % of Prediction,[1]; Treatment #3,112%
same,PEF (L/S) Actual,[1]; Treatment #3,7.225 L/S
same,FEF (25–75%) % Change,[1]; [8],36%
same,FEV1 % Change,[1]; [8],42%
same,FEV1/FVC % Change,[1]; [8],6%
same,FVC % Change,[1]; [8],35%
same,PEF % Change,[1]; [8],13%
same,lung capacity and airflow after treatment,[1]; summary in words,marked improvement in lung capacity and airflow
same,FEV1 % of Prediction,[2]; [9],35%
same,FEV1 (L) Actual,[2]; [9],0.555 L
same,FVC % of Prediction,[2]; [9],54%
same,FVC (L) Actual,[2]; [9],1.155 L
same,FEV1 % Change,[2]; [10],48%
same,FVC % Change,[2]; [10],35%
same,FVC and FEV1 after treatment,[2]; summary in words,dramatic increase in FVC and FEV1
same,FEV1 % Change,[3]; [10],39%
same,FVC % Change,[3]; [10],34%
same,FEV1 % of Prediction,[3]; [11],84%
same,FEV1 (L) Actual,[3]; [11],2.745 L
same,FVC % of Prediction,[3]; [11],78%
same,FVC (L) Actual,[3]; [11],3.285 L
same,lung capacity and airflow after treatment,[3]; summary in words,marked improvement in lung capacity and airflow
same,solubility in water,[4],sparingly soluble in water
